{
  "source": "patent US20030181362A1",
  "about": "“Receptor” (priority 2000, published 2003)",
  "key": {"[1]": {"experiment": "Immune complex inflammation in mouse ear (human albumin i.v., anti-HA s.c.)", "format": "in vivo, Mice", "description": "FIG. 22: Mice (7 or 8 per group) injected with human albumin (HA) 10 mg/kg i.v. (200 μl of a solution 1 mg/ml in Evans blue1%). After 5 min anti-HA injected s.c. in situ (in ear). Test compounds then injected and after 4 h evaluations made for reduction of inflammation. Oedema was evaluated by weight. Plasma extravasation as measure of microvascular permeability or haemorrage was measured by extraction of extravasated Evan's blue dye with formamide from injected ears. As well as subcutaneous (s.c.) administration of H17 (the test compound of formula HEVKIKHFSPY at two concentrations), it was also given intravenously (0.1 mg/kg). The positive control for reduction in inflammation in this experiment was cromolyn."}, "[2]": {"target": "T1, human complement C2 (Homo sapiens, UniProt P06681)", "T1 sequence (P06681 21-752)": "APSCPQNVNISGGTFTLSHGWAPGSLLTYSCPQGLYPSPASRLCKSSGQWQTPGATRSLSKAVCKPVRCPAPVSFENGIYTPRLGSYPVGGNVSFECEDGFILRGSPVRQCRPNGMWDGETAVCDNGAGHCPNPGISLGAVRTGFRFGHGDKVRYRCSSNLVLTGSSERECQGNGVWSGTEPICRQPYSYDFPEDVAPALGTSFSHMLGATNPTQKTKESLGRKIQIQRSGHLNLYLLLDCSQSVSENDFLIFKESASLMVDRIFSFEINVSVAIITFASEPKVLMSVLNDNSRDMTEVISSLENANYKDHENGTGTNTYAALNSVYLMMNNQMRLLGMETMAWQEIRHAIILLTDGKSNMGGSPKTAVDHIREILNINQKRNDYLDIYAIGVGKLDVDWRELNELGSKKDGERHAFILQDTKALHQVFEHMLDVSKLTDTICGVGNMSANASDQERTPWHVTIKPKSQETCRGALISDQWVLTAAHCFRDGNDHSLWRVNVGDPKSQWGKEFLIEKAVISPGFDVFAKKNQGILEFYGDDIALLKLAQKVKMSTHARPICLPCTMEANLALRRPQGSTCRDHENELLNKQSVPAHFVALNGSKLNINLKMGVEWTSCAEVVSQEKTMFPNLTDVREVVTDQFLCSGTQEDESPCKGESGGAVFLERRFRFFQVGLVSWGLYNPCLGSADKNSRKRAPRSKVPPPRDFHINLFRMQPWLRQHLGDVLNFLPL", "experiment": "Haemolysis with C2-deficient human serum reconstituted with C2, peptide preincubated with C2", "format": "biochemical", "conditions": "peptide preincubated with C2 before addition to C2-depleted serum", "description": "As an additional confirmation that TORE-ed-1 specifically binds to human complement C2, C2-deficient human serum with enough C2 added to reconstitute haemolytic activity, was used in the same assay.\n(§1) FIG. 11(A) and (B) Effect of increasing TORE-ed1 peptide on the complement-mediated lysis of sensitized sheep red blood cells in the presence of normal human serum as a source of complement. FIG. 11(C) and (D) Effect of increasing TORE-ed1 peptide preincubated with C2 on haemolysis in the presence of human serum in which C2 is limiting. FIG. 11(E) effect of various Tore peptides and Tore related C4b-derived peptides on complement mediated lysis."}, "[3]": {"test_system": "Classical Pathway", "experiment": "Inhibition of Classical pathway-mediated lysis of antibody-sensitized sheep erythrocytes in normal human serum", "format": "biochemical", "description": "To determine whether the interaction of C2 with ShTORE-ed-1 could affect the normal interaction of C2 with other complement proteins and thereby inhibit complement activation, the effect of the TORE-ed-1 peptide on complement activation was assessed. The ability of the TORE-ed-1 peptide to inhibit the lysis of antibody-sensitized sheep erythrocytes, in the presence of normal human serum, NHS (and therefore in the presence of complement proteins C1 through to […]), in a dose-dependent manner, was used as a measure of its ability to inhibit the Classical Pathway. The extent of haemolysis was determined by spectrophotometric measurement of haemoglobin release at 412 nm. An IC60 value of approximately 10 μM was found (FIG. 11A and B).\nas §1"}, "[4]": {"target": "T1, human complement C2", "experiment": "Receptor affinity chromatography with immobilised ed-1 peptide", "format": "binding", "set-up": "One litre of serum-free medium which had maintained the cells; endogenous in cells; host or cells: THP-1 (human macrophage-like cells), conditioned serum-free medium", "text": "In order to identify a likely ligand, the putative ligand-binding domain of ShTORE, extracellular domain 1 (ed-1), was used in receptor affinity chromatography. It was assumed that the cells expressing the receptor themselves produced the ligand in an “autocrine” manner. The cells chosen were the macrophage-like (human) THP-1 cells. These were adapted to grow in conditioned, serum-free medium in order to increase the chances of finding the ligand for TORE. One litre of serum-free medium which had maintained the cells, and as a control one litre of serum-free medium without cells, was passed through identical epoxy-activated Sepharose 6B columns with the 27-mer ShTORE-ed-1 peptide attached. Fractions were collected from a low pH elution and 20 μl aliquots run on SDS-PAGE. An 83 kDa protein band was identified (FIG. 10A, lane 1). The fraction was concentrated, transferred to problot and stained with Coomassie Brilliant blue. The band was then excised and the N-terminal sequence determined. The resulting six residues indicated the protein to be human complement protein C2. The fully glycosylated version of C2, however should have been 102 kDa."}},
  "data": [
    {"substance": "HEVKIKSPY [TOR-ed1 peptide; probably a misprint of …]", "values": [
      {"measurement": "inflammation mediated by immune complexes and Classical pathway complement (Type III hypersensitivity)", "setting": "[1]; in vivo", "value": "reduce inflammation"}
    ]},
    {"substance": "NH2-Met-Ser-Pro-Ser-Leu-Val-Ser-Asp-Thr-Gln-Lys-His-Glu-Arg-Gly-Ser-His-Glu-Val-Lys-Ile-Lys-His-Phe-Ser-Pro-Tyr-CO2H (H-MSPSLVSDTQKHERGSHEVKIKHFSPY-OH) [TORE-ed-1 peptide, 27-mer peptide of extracellular domain 1 of ShTORE]", "values": [
      {"measurement": "inhibition of haemolytic activity", "setting": "[2]", "value": "inhibit haemolytic activity"},
      {"measurement": "complement inhibition in vitro", "setting": "[3]", "value": "inhibit complement action in vitro"},
      {"measurement": "concentration able to inhibit the haemolytic activity of C2 from the Classical pathway", "setting": "[3]; normal human serum", "value": 10, "unit": "µM"},
      {"measurement": "IC60, inhibition of lysis of antibody-sensitized sheep erythrocytes", "setting": "[3]; normal human serum, haemoglobin release at 412 nm", "value": "approximately 10 μM"},
      {"measurement": "interaction with C2", "setting": "[4]", "value": "interact with human complement protein C2"}
    ]},
    {"substance": "SSTSDIRLVIHTKTGPIYIKST (shistosoma haematobium) [SEQ ID NO 2]", "values": [
      {"measurement": "complement inhibition in vitro", "setting": "[3]", "value": "inhibit complement action in vitro"}
    ]},
    {"substance": "HEVKIKHFSPY (shistosoma haematobium) [H17]", "values": [
      {"measurement": "reduction of haemorrage (Evans blue extravasation)", "setting": "[1]; 1 μg dose, 4 h", "value": 30, "unit": "%"},
      {"measurement": "reduction of oedema (by weight)", "setting": "[1]; 1 μg dose, 4 h", "value": 28, "unit": "%"},
      {"measurement": "complement inhibition in vitro", "setting": "[3]", "value": "capable of effective complement inhibition in vitro"}
    ]},
    {"substance": "FEVKITPGKPY [C4b β chain derived peptide]", "values": [
      {"measurement": "complement inhibition in vitro", "setting": "[3]", "value": "shown to inhibit complement in vitro"}
    ]}
  ]
}
